Assay results: PubChem BioAssay AID248 (DTP/NCI, 2004)
“And” between values parts separate entries of the source, which are not always exact repeats. Equal entries are not always repeated. Inconclusive results and toxic doses are left out. Cut-off read from the data, not from the text of the source: active = T/C of 150% or more; inactive = T/C below 125%.

System: L1210 leukemia ip in BDF1 mice, survival T/C
Experiment: NCI In Vivo Anticancer Drug Screen. Data for tumor model L1210 Leukemia (intraperitoneal) in B6D2F1 (BDF1) mice
Conditions: endpoint: mean survival time, higher = longer survival
In short: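 Read-out is survival time, reported as the treated-group measurement over the vehicle-control measurement.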

[1] = dose: 50.0 mg/kg/injection, schedule: Q01DX001 (ip), vehicle: saline
[2] = dose: 100.0 mg/kg/injection, schedule: Q01DX001 (ip), vehicle: saline
[3] = dose: 200.0 mg/kg/injection, schedule: Q01DX001 (ip), vehicle: saline
[4] = dose: 50.0 mg/kg/injection, schedule: Q01DX009 (ip), vehicle: Klucel (hydroxypropylcellulose) (HPC)
[5] = dose: 100.0 mg/kg/injection, schedule: Q01DX009 (ip), vehicle: Klucel (hydroxypropylcellulose) (HPC)
[6] = dose: 100.0 mg/kg/injection, schedule: Q04DX003 (ip), vehicle: Klucel (hydroxypropylcellulose) (HPC)
[7] = dose: 200.0 mg/kg/injection, schedule: Q01DX009 (ip), vehicle: Klucel (hydroxypropylcellulose) (HPC)
[8] = dose: 200.0 mg/kg/injection, schedule: Q04DX003 (ip), vehicle: Klucel (hydroxypropylcellulose) (HPC)
[9] = dose: 400.0 mg/kg/injection, schedule: Q04DX003 (ip), vehicle: Klucel (hydroxypropylcellulose) (HPC)
[10] = dose: 100.0 mg/kg/injection, schedule: Q01DX009 (ip), vehicle: saline with Tween-80
[11] = dose: 100.0 mg/kg/injection, schedule: Q04DX003 (ip), vehicle: saline with Tween-80
[12] = dose: 200.0 mg/kg/injection, schedule: Q01DX009 (ip), vehicle: saline with Tween-80
[13] = dose: 200.0 mg/kg/injection, schedule: Q04DX003 (ip), vehicle: saline with Tween-80
[14] = dose: 400.0 mg/kg/injection, schedule: Q01DX009 (ip), vehicle: saline with Tween-80
[15] = dose: 400.0 mg/kg/injection, schedule: Q04DX003 (ip), vehicle: saline with Tween-80
[16] = dose: 50.0 mg/kg/injection, schedule: Q01DX009 (ip), vehicle: saline
[17] = dose: 100.0 mg/kg/injection, schedule: Q01DX009 (ip), vehicle: saline
[18] = dose: 400.0 mg/kg/injection, schedule: Q01DX009 (ip), vehicle: Klucel (hydroxypropylcellulose) (HPC)
[19] = dose: 100.0 mg/kg/injection, schedule: Q04DX002 (ip), vehicle: saline with Tween-80
[20] = dose: 400.0 mg/kg/injection, schedule: Q01DX001 (ip), vehicle: saline

Measured: T/C

CC(=O)NCCSC(=O)C(=O)SCCNC(C)=O
inactive: dose: 25.0 mg/kg/injection, schedule: Q01DX001 (ip), vehicle: saline 115 % of control | dose: 25.0 mg/kg/injection, schedule: Q01DX Z (ip), vehicle: saline 102 % of control | [1] 102 % of control | dose: 50.0 mg/kg/injection, schedule: Q01DX Z (ip), vehicle: saline 96 % of control | [2] 102 % of control | dose: 100.0 mg/kg/injection, schedule: Q01DX Z (ip), vehicle: saline 96 % of control | [3] 94 % of control and 96 % of control and 104 % of control | dose: 450.0 mg/kg/injection, schedule: Q01DX001 (ip), vehicle: saline 86 % of control

Cc1ccc(NC(=O)Nc2cccc(O)c2)c([N+](=O)[O-])c1
inactive: [4] 98 % of control | [5] 102 % of control | [6] 103 % of control | [7] 98 % of control | [8] 106 % of control | [9] 103 % of control

C=C1C=C(c2ccccc2)N(C(=O)c2ccccc2I)CCN1C(=O)c1ccccc1I
inactive: [6] 114 % of control | [8] 89 % of control | [9] 94 % of control

CC1COCCN1 (stereo not given)
inactive: [1] 91 % of control | [2] 97 % of control | [3] 100 % of control

CCCCCCC(C)O[Si](C)c1ccc(OC)cc1 (stereo not given)
inactive: [10] 107 % of control | [11] 98 % of control | [12] 105 % of control | [13] 101 % of control | [14] 98 % of control | [15] 102 % of control

CC(C)(C)CC(C)(C)NCC(O)COc1ccc(C(C)(C)c2ccc(OCC(O)CNC(C)(C)CC(C)(C)C)cc2)cc1 (stereo not given)
inactive: dose: 3.13 mg/kg/injection, schedule: Q04DX003 (ip), vehicle: other 93 % of control | dose: 6.25 mg/kg/injection, schedule: Q01DX001 (ip), vehicle: saline sonified 97 % of control | dose: 6.25 mg/kg/injection, schedule: Q04DX003 (ip), vehicle: other 97 % of control | dose: 12.5 mg/kg/injection, schedule: Q01DX001 (ip), vehicle: saline sonified 96 % of control | dose: 12.5 mg/kg/injection, schedule: Q04DX003 (ip), vehicle: other 98 % of control | dose: 25.0 mg/kg/injection, schedule: Q04DX003 (ip), vehicle: other 93 % of control

CCOC(=O)C1C(=O)C(N=Nc2ccc(-c3ccc(N=NC4C(=O)C(C(=O)OCC)C(c5ccc(O)c(OC)c5)C(C(=O)OCC)C4=O)cc3)cc2)C(=O)CC1c1ccc(O)c(OC)c1 (stereo not given)
inactive: dose: 100.0 mg/kg/injection, schedule: Q01DX001 (ip), vehicle: other 96 % of control | dose: 200.0 mg/kg/injection, schedule: Q01DX001 (ip), vehicle: other 103 % of control

Cc1ccc(S(=O)(=O)NC(=O)N(Cc2ccccc2)C(C)(C)C)cc1
inactive: dose: 25.0 mg/kg/injection, schedule: Q01DX009 (ip), vehicle: Klucel (hydroxypropylcellulose) (HPC) 107 % of control | [4] 100 % of control

N#CCc1cc(Cl)ccc1OCC(=O)O
inactive: dose: 100.0 mg/kg/injection, schedule: Q04DX002 (ip), vehicle: Klucel (hydroxypropylcellulose) (HPC) 95 % of control | dose: 200.0 mg/kg/injection, schedule: Q04DX002 (ip), vehicle: Klucel (hydroxypropylcellulose) (HPC) 103 % of control | dose: 400.0 mg/kg/injection, schedule: Q04DX002 (ip), vehicle: Klucel (hydroxypropylcellulose) (HPC) 100 % of control

CCCCCCCCCCCCC/C=C/CC(CC(=O)O)C(=O)Nc1ccc(-n2c(=O)cc(C)n2C)cc1 (stereo not given)
inactive: [11] 92 % of control | [13] 94 % of control | [15] 92 % of control

CCOC(=O)c1cnn(-c2ccccc2)c1N
inactive: dose: 25.0 mg/kg/injection, schedule: Q01DX009 (ip), vehicle: saline 104 % of control | [16] 108 % of control | [5] 98 % of control | [17] 105 % of control | [6] 96 % of control | [7] 100 % of control | [8] 100 % of control | [18] 102 % of control | [9] 100 % of control

O=C1CSC(=S)N1c1ccc(N2C(=O)CSC2=S)cc1
inactive: [19] 90 % of control | dose: 200.0 mg/kg/injection, schedule: Q04DX002 (ip), vehicle: saline with Tween-80 96 % of control | dose: 400.0 mg/kg/injection, schedule: Q04DX002 (ip), vehicle: saline with Tween-80 100 % of control

CCOC(=O)C(C(=O)OCC)C1CCS(=O)(=O)C1 (stereo not given)
inactive: [10] 103 % of control | [12] 96 % of control | [14] 92 % of control

OC1CC2C=CC1C2 (stereo not given)
inactive: dose: 100.0 mg/kg/injection, schedule: Q01DX001 (ip), vehicle: carboxymethylcellulose (CMC) 93 % of control | [2] 107 % of control | dose: 200.0 mg/kg/injection, schedule: Q01DX001 (ip), vehicle: carboxymethylcellulose (CMC) 95 % of control | [3] 88 % of control | dose: 400.0 mg/kg/injection, schedule: Q01DX001 (ip), vehicle: carboxymethylcellulose (CMC) 101 % of control | [20] 109 % of control

C/C(=N/Nc1ccc([N+](=O)[O-])cc1)c1ccncc1
inactive: [4] 101 % of control | [5] 111 % of control | [7] 89 % of control | [18] 105 % of control

N#CC(C#N)C1c2ccccc2C([N+](=O)[O-])c2ccccc21 (stereo not given)
inactive: [10] 103 % of control | [11] 88 % of control | [12] 96 % of control | [13] 93 % of control | [14] 98 % of control | [15] 101 % of control

c1ccc(N/N=C2/CSCc3ccccc32)cc1
inactive: dose: 100.0 mg/kg/injection, schedule: Q01DX001 (ip), vehicle: saline with Tween-80 97 % of control | dose: 200.0 mg/kg/injection, schedule: Q01DX001 (ip), vehicle: saline with Tween-80 95 % of control | dose: 400.0 mg/kg/injection, schedule: Q01DX001 (ip), vehicle: saline with Tween-80 106 % of control

c1ccc(-c2cc(-c3cc(-c4ccccc4)on3)no2)cc1
inactive: dose: 50.0 mg/kg/injection, schedule: Q04DX003 (ip), vehicle: saline with Tween-80 98 % of control | [11] 98 % of control | [13] 101 % of control

N#CCc1ccc(NN)cc1
inactive: dose: 75.0 mg/kg/injection, schedule: Q01DX009 (ip), vehicle: other 93 % of control | dose: 150.0 mg/kg/injection, schedule: Q01DX009 (ip), vehicle: other 95 % of control

Cc1cc(CSC2=NCCN2)c(C)cc1CSC1=NCCN1
inactive: dose: 25.0 mg/kg/injection, schedule: Q04DX002 (ip), vehicle: saline with Tween-80 111 % of control | dose: 50.0 mg/kg/injection, schedule: Q04DX002 (ip), vehicle: saline with Tween-80 100 % of control | [19] 101 % of control and 109 % of control

CCO/C=C1\SC(=S)N(c2ccco2)C1=O
inactive: dose: 100.0 mg/kg/injection, schedule: Q01DX009 (ip), vehicle: saline sonified 98 % of control | dose: 200.0 mg/kg/injection, schedule: Q01DX009 (ip), vehicle: saline sonified 103 % of control | dose: 400.0 mg/kg/injection, schedule: Q01DX009 (ip), vehicle: saline sonified 92 % of control

Cc1cccc(Cl)c1NC(=O)CCC(=O)O
inactive: [2] 101 % of control | [3] 101 % of control | [20] 95 % of control

Cc1cc2nc(CCl)[nH]c2cc1C
inactive: [1] 106 % of control | [2] 108 % of control | [3] 112 % of control

O/C=C(\Cl)CCl
inactive: [1] 100 % of control | [16] 107 % of control and 108 % of control | dose: 50.0 mg/kg/injection, schedule: Q04DX002 (ip), vehicle: saline 97 % of control and 106 % of control | dose: 50.0 mg/kg/injection, schedule: Q04DX003 (ip), vehicle: saline 97 % of control | [2] 90 % of control | [17] 101 % of control and 104 % of control | dose: 100.0 mg/kg/injection, schedule: Q04DX003 (ip), vehicle: saline 106 % of control
